In patent US20020052317A1, “Anti-viral and anti-tumor chemotherapy by administration of erythropoeitin” (priority 2000, published 2002):

Tests used:
[1] = test system: patients co-infected with HIV and HCV; conditions: cited from earlier work
[2] = test system: anemic HCV infected patients receiving combination RBV/IFN alfa-2b; test: Open-label, randomized, parallel-group study of PROCRIT once weekly versus standard of care in hepatitis C patients on ribavirin/interferon alfa-2b; format: in vivo, human
TNFβ (lymphotoxin α) = molecular target: T1, TNFβ (lymphotoxin α) (Homo sapiens, UniProt P01374); conditions: cited from earlier work
T1 sequence (P01374 35-205): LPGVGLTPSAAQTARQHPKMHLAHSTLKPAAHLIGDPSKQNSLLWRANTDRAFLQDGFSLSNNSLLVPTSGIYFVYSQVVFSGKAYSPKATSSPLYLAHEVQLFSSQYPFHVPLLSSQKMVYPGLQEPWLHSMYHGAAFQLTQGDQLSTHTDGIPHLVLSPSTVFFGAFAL

[3] = in vivo, 5 mg/kg; cited from earlier work
[4] = test system: subjects treated with REBETRON for chronic hepatitis C; conditions: either ribavirin, interferon, or both agents; cited from earlier work
[5] = last available time point vs baseline, PROCRIT 40,000 Units qw s.c., N=22

In the case of Epoetin alfa [PROCRIT], the “hemoglobin (Hb) value at initiation of r-HuEPO” value ([1]; before r-HuEPO 40,000 U once weekly) is given as 10 g/dL, the “hemoglobin (Hb) value after r-HuEPO treatment” value ([1]; r-HuEPO 40,000 U once weekly, after a median of four weeks) is given as 12.7 g/dL and the “hemoglobin levels (in words)” value ([2]; anemic patients on Ribavirin/INF-alpha, FIG. 1) is given as “increase their hemoglobin levels to near normal levels”. The “Hb Range” value ([2]; baseline, before PROCRIT, N=25) was 9.1 to 12.0 g/dL, the “Mean Hb” value ([2]; baseline, before PROCRIT, N=25) was 11 g/dL and the “Change Hb Range” value [2, 5] was -1.4 to 6.2 g/dL. The “Mean change Hb” value [2, 5] was 2.4 g/dL, the “Hb Range” value ([2]; last available time point, PROCRIT 40,000 Units qw s.c., N=22) was 7.7 to 16.8 g/dL and the “Mean Hb” value ([2]; last available time point, analysis after 16 weeks, PROCRIT 40,000 Units qw s.c., N=22) was 13.5 g/dL. The patient well being ([2]; reported even before hemoglobin levels improved) was “demonstrated better well being” and the “ability to maintain Ribavirin dosing” value ([2]; throughout the study period, FIG. 2) was “increased ability to maintain Ribavirin dosing”.
For “Infliximab: monoclonal antibody that blocks the biological activity of circulating TNFα”, the “neutralization of TNFβ (lymphotoxin α)” value (TNFβ (lymphotoxin α)) is given as “does not neutralize”, the “median Cmax” value [3] is given as 118 µg/mL and the “median Vd (volume of distribution at steady state)” value [3] is given as 3.0 L. The terminal half-life [3] was 228 h.
In the case of NC(=O)c1ncn([C@@H]2O[C@H](CO)[C@@H](O)[C@H]2O)n1 [REBETOL, 1β-D-ribofuranosyl 1H-1,2,4-Triazole-3-carboxamide], the “patients requiring a dose modification” value [4] is listed as “about 26%”.
